This note sets out measurements from ChEMBL document CHEMBL1135194, “Inhibition of Src kinase activity by 4-anilino-7-thienyl-3-quinolinecarbonitriles” (Bioorg Med Chem Lett, 2002).

Structures are written as SMILES.

In general, IC50 refers to the concentration that gives 50% inhibition. A high value points to weaker potency.

For the experiment, the target named is Proto-oncogene tyrosine-protein kinase Src (Homo sapiens, UniProt P12931). Nature of the experiment: Inhibition of Src kinase in enzymatic assay.
Proto-oncogene tyrosine-protein kinase Src, sequence (P12931 2-536 limits assumed): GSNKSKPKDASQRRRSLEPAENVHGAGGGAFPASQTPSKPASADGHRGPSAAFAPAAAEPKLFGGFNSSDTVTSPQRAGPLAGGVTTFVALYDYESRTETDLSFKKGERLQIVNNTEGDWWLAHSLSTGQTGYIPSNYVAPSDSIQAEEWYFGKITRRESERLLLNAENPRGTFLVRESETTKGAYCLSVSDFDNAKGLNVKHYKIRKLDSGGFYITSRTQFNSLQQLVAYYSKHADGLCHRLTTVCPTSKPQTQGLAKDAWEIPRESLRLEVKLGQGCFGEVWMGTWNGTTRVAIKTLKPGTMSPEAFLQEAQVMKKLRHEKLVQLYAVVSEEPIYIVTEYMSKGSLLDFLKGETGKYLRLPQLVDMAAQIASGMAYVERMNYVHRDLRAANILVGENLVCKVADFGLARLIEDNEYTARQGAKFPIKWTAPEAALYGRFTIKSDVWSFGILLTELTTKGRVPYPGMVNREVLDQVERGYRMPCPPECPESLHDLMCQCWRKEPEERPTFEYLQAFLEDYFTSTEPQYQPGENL
Turning to `COc1cc(Nc2c(C#N)cnc3cc(-c4ccsc4CN4CCOCC4)ccc23)c(Cl)cc1Cl`, the half-inhibitory concentration (IC50) is 440 nM.

In turn, `COc1cc(Nc2c(C#N)cnc3cc(-c4cc(CN5CCCCC5)cs4)ccc23)c(Cl)cc1Cl` showed an IC50 of 4.2 nM.

`COc1cc(Nc2c(C#N)cnc3cc(-c4csc(CN5CCC(O)CC5)c4)ccc23)c(Cl)cc1Cl` showed an IC50 of 1.4 nM.

`COc1cc(Nc2c(C#N)cnc3cc(-c4cc(CN5CCOCC5)cs4)ccc23)c(Cl)cc1Cl` displayed an IC50 of 5.7 nM.

As to `COc1cc(Nc2c(C#N)cnc3cc(-c4csc(CN5CCOCC5)c4)ccc23)c(Cl)cc1Cl`, the half-inhibitory concentration (IC50) amounted to 2.7 nM.

In the case of `COc1cc(Nc2c(C#N)cnc3cc(-c4ccc(CN5CCOCC5)s4)ccc23)c(Cl)cc1Cl`, it took 2.5 nM to reach half-maximal inhibition (IC50).

`COc1cc(Nc2c(C#N)cnc3ccc(-c4csc(CN5CCOCC5)c4)cc23)c(Cl)cc1Cl` displayed an IC50 of 280 nM.

Regarding `COc1cc(Nc2c(C#N)cnc3cc(-c4cscc4CN4CCOCC4)ccc23)c(Cl)cc1Cl`, the IC50 turned out to be 240 nM.
